Consider one compound from patent US12496301B2, “Use of androgen receptor degrader for the treatment of spinal and bulbar muscular atrophy” (Arvinas Operations, Inc., priority 2023, dated 2025).

In data set [1] the test system is AR. In words: AR degradation in hiPSC myotubes in the presence of dihydrotestosterone (DHT). Format: cell-based, human. From the text: FIG. 11 is a representative dose response curve showing mean AR concentration in DMSO treated cells plotted against Compound A concentration in SBMA patient-derived hiPSC lines differentiated into myotubes.
Control and SBMA hiPSCs were differentiated into myotubes as previously described (Caron, L. et al. 2016, STEM CELLS Transl. Med. 5, 1145-1161) using the skeletal muscle differentiation kit (Amsbio). hiPSCs were dissociated to single cells using Accutase and plated on Geltrex-coated 10 cm culture plates at a density of 200,000 cells per plate with SBMA hiPSCs in skeletal muscle induction media (SKM01, AMSBIO). Media changes were performed every second day until cells were confluent (˜7 days). The resulting myogenic precursor cells were then dissociated to single cells using Accutase and replated on Matrigel-coated 24-well tissue culture plate with 500 μL of cells at 35,000 cells per mL in skeletal myoblast media (SKM02, AMSBIO). Half media changes were performed every second day until myoblasts reached confluence (˜7 days). The media was then switched to myotube medium (SKM03, ASMBIO). Media changes every second day until myotube formation was confirmed by microscopy. […] AR protein was measured by capillary electrophoresis. […]

Data set [2] relates to polyQ-AR. In words: Global proteomics in SBMA hiPSC-myotubes: polyQ-AR and specificity. Type of data set: cell-based, human. From the text:
(FIG. 12A). […] (FIG. 12C).

Data set [3] relates to polyQ-AR. Kind of data set: polyQ-AR degradation in SBMA patient hiPSC-derived myotubes, capillary immunoassay. Type of data set: cell-based, human. Particulars: two donor hiPSC lines, 24 hours. On the procedure: Lysates for hiPSC-derived myotubes were prepared in lysis buffer ([…], 50 mM sodium chloride, 1% NP-40, 1% SDS) supplemented with Halt Protease Inhibitor (78437 Thermo Fisher Scientific), Benzonase, and MgCl2 (1 mM final concentration). The lysates were cleared by centrifugation at 4° C. and supernatants were quantified using the BIO-RAD DC protein assay (5000112 BIO-RAD). The AR and protein levels were quantified by an automated capillary immunoassay experiment (ProteinSimple). The AR and Myosin Protein levels were quantified and normalized to total protein.
Control and SBMA hiPSCs were differentiated into myotubes as previously described (Caron, L. et al. 2016, STEM CELLS Transl. Med. 5, 1145-1161) using the skeletal muscle differentiation kit (Amsbio). hiPSCs were dissociated to single cells using Accutase and plated on Geltrex-coated 10 cm culture plates at a density of 200,000 cells per plate with SBMA hiPSCs in skeletal muscle induction media (SKM01, AMSBIO). Media changes were performed every second day until cells were confluent (˜7 days). The resulting myogenic precursor cells were then dissociated to single cells using Accutase and replated on Matrigel-coated 24-well tissue culture plate with 500 μL of cells at 35,000 cells per mL in skeletal myoblast media (SKM02, AMSBIO). Half media changes were performed every second day until myoblasts reached confluence (˜7 days). The media was then switched to myotube medium (SKM03, ASMBIO). Media changes every second day until myotube formation was confirmed by microscopy. Myotubes were treated on day 20 of differentiation (6 days' worth of SKM03 media) with compounds diluted in DMSO for a final DMSO concentration of 0.01% in SKM03 media. The cells were lysed 24 hours later in Pierce RIPA buffer (Cat. No. 89900, ThermoFisher) supplemented with 1× Halt protease inhibitor cocktail (Cat. No. 87786, ThermoFisher), 1 mM MgCl2, and 1 μL Benzonase Nuclease. AR protein was measured by capillary electrophoresis. […]

Data set [4] is described as follows: Free fraction in mouse plasma. Type of data set: in vitro ADME.

The term DC50 denotes the midpoint of the concentration-degradation curve. In general, fraction unbound refers to free concentration divided by total concentration. Low readings indicate little free substance, high ones much free substance.

“Also recorded” adds a separate entry of the source. Read-outs that look alike come from different tables or passages of the source.

Regarding `CC(C)N(CC1CCN(c2ncc(C(=O)N[C@H]3C(C)(C)[C@H](Oc4ccc(C#N)c(Cl)c4)C3(C)C)cn2)CC1)[C@H]1C[C@H](Oc2ccc3c(c2)C(=O)N(C2CCC(=O)NC2=O)C3=O)C1` (stereo partly shown) [Compound A, N-((1r,3r)-3-(3-chloro-4-cyanophenoxy)-2,2,4,4-tetramethylcyclobutyl)-2-(4-((((1r,3r)-3-((2-(2,6-dioxopiperidin-3-yl)-1,3-dioxoisoindolin-5-yl)oxy)cyclobutyl)(isopropyl)amino)methyl)piperidin-1-yl)pyrimidine-5-carboxamide], the DC50 is 5.9 nM in data set [1] (DHT present at 500 pM, read-out: DC50 in hiPSC myotubes with DHT); 0.5 nM in data set [1] (without any DHT (0 pM), read-out: DC50 in hiPSC myotubes without DHT); 0.6 to 0.8 nM in data set [3]. Further, the “polyQ-AR degradation compared to control, global proteomics” value in data set [2] (12 nM, SBMA hiPSC-myotubes) is “induces degradation of polyQ-AR; also recorded: degrades polyQ-AR”. Further, the “neosubstrates (off-target substrates) identified” value in data set [2] (out of ~7,600 proteins detected in myotubes) is recorded as “single neosubtrate; also recorded: only one neosubstrate”. Also, the “Dmax, polyQ-AR in SBMA hiPSC-myotubes” value in data set [3] was 83-96%. Also, the fraction unbound in data set [4] came to 0.0044.
